Test results published in US20230012368A1 (Hoffmann-La Roche Inc., priority 2018, published 2023).
Where a name gives a salt, the structure may show the parent alone.

Each molecule was assayed on Acinetobacter baumannii ATCC 17978 (assay: Antimicrobial susceptibility testing: 90% growth inhibitory concentration (IC90) determination). Settings: Acinetobacter baumannii, ATCC17978, 16 h, 90% growth inhibitory concentration; Acinetobacter baumannii ATCC17978; Iso-Sensitest broth, OD 600 nm over 16h; read-out: ATCC17978 IC90.
Type: cell-based
In short: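 Compounds serially twofold diluted (e.g. 50 to 0.097 μM final) in Iso-Sensitest broth, inoculated at ~5×10^(5) CFU/ml, incubated at 35±2° C. OD600 read every 20 minutes over 16h. IC90 taken as concentration inhibiting 90% of growth during logarithmic phase.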

| IC90 | SMILES |
| --- | --- |
| 4300 nM | Cc1cc(Nc2nccn3c(-c4ccc(OC(F)F)cc4)cnc23)ccc1C(=O)N(C)CC1(O)CCNCC1 [Example 260, 4-[[3-[4-(difluoromethoxy)phenyl]im-idazo[1,2-a]pyrazin-8-yl]amino]-N-[(4-hydroxypiperidin-4-yl)methyl]-N,2-dimethylbenzamide;hydrochlo-ride] |
| 360 nM | CCc1cc(Nc2nccn3c(-c4ccc(OC)c(F)c4F)cnc23)ccc1C(=O)N[C@H](C)CCN [Example 303, N-[(2R)-4-aminobutan-2-yl]-4-[[3-(2,3-difluoro-4-methoxyphenyl)imidazo[1,2-a]pyrazin-8-yl]amino]-2-ethylbenzamide;hydrochloride] |
| 4900 nM | Cc1cc(Nc2nccn3c(-c4ccc(OC(F)F)cc4)cnc23)ccc1C(=O)NCC1(O)CCNCC1 [Example 261, 4-[[3-[4-(difluoromethoxy)phenyl]im-idazo[1,2-a]pyrazin-8-yl]amino]-N-[(4-hydroxypiperidin-4-yl)methyl]-2-methylbenzamide; hydrochlo-ride] |
| 410 nM | CCc1cc(Nc2nccn3c(-c4ccc(OC)c(F)c4F)cnc23)ccc1C(=O)NCC(C)CNC(=O)[C@@H](N)CNC(=N)N (mixture of isomers) [Example 408, rac-N-(3-((R)-2-amino-3-guanidinopropanamido)-2-methylpropyl)-4-((3-(2,3-difluoro-4-methoxyphenyl)imidazo[1,2-a]pyrazin-8-yl)amino)-2-ethylbenzamide diformate] |
| 1300 nM | CCc1cc(Nc2nccn3c(-c4ccc(Cl)cc4Cl)cnc23)ccc1C(=O)NCCNC(=O)[C@H](N)CCCNC(=N)N [Example 351, N-[2-[[(2R)-2-amino-5-carbamimidamidopentanoyl]amino]ethyl]-4-[[3-(2,4-dichlorophenyl)imidazo[1,2-a]pyrazin-8-yl]amino]-2-ethylbenzamide;formic acid] |
| 150 nM | CCc1cc(Nc2nccn3c(-c4ccc(OC)c(F)c4F)cnc23)ccc1C(=O)NCc1cnn(C)c1 [Example 555, 4-[[3-(2,3-difluoro-4-methoxy-phenyl)imidazo[1,2-a]pyrazin-8-yl]amino]-2-ethyl-N-[(1-methylpyrazol-4-yl)methyl]benzamide] |
| 1700 nM | COc1ccc(-c2cnc3c(Nc4ccc5c(c4)CCNC5=O)nccn23)c(Cl)c1 [Example 179, 6-[[3-(2-chloro-4-methoxyphenyl)imidazo[1,2-a]pyrazin-8-yl]amino]-3,4-dihydro-2H-isoquinolin-1-one] |
| 760 nM | Cc1cc(Nc2nccn3c(-c4ccc(OC(F)F)cc4)cnc23)ccc1C(=O)N(C)CCC1CCN(CCCC(=O)O)CC1 [Example 443, 4-(4-(2-(4-((3-(4-(difluoromethoxy)phenyl)im-idazo[1,2-a]pyrazin-8-yl)amino)-N,2-dimethylbenzamido)ethyl)piperidin-1-yl)butanoic acid hydrochloride] |
| 1200 nM | Cc1cc(Nc2nccn3c(-c4ccc(OC(F)F)cc4)cnc23)ccc1C(=O)NCCN1CCOCC1 [Example 230, 4-[[3-[4-(difluoromethoxy)phenyl]im-idazo[1,2-a]pyrazin-8-yl]amino]-2-methyl-N-(2-morpholin-4-ylethyl)benzamide] |
| 800 nM | CCc1cc(Nc2nccn3c(-c4ccc(OCc5cc[nH]n5)c(F)c4F)cnc23)ccc1C(=O)N[C@@H](C)CN (racemic) [Example 485, rac-(R)-4-((3-(4-((1H-pyrazol-3-yl)methoxy)-2,3-difluorophenyl)imidazo[1,2-a]pyrazin-8-yl)amino)-N-(1-aminopropan-2-yl)-2-ethylbenzamide] |
| 7100 nM | Cc1cc(Nc2nccn3c(-c4ccc(OC(F)F)cc4)cnc23)ccc1C(=O)N[C@@H](C)CN [Example 269, N-[(2S)-1-aminopropan-2-yl]-4-[[3-[4-(difluoromethoxy)phenyl]im-idazo[1,2-a]pyrazin-8-yl]amino]-2-methylbenzamide;hydrochlo-ride] |
| 730 nM | CCc1cc(Nc2nccn3c(-c4ccc(OC)c(F)c4F)cnc23)ccc1C(=O)N[C@@H](C)CNC(=O)[C@@H](N)CCCNC(=N)N [Example 342, N-[(2S)-1-[[(2S)-2-amino-5-carbamimidamidopentanoyl]amino]propan-2-yl]-4-[[3-(2,3-difluoro-4-methoxyphenyl)imidazo[1,2-a]pyrazin-8-yl]amino]-2-ethylbenzamide; formic acid] |
| 850 nM | CCc1cc(Nc2nccn3c(-c4ccc(Oc5ccccn5)c(F)c4F)cnc23)ccc1C(=O)NCCNC(=O)[C@@H](N)CCCNC(=N)N [Example 417, N-[2-[[(2S)-2-amino-5-guanidino-pentanoyl]amino]ethyl]-4-[[3-[2,3-difluoro-4-(2-pyridyloxy)phenyl]imidazo [1,2-a]pyrazin-8-yl]amino]-2-ethyl-benzamide; formic acid] |
| 720 nM | CCc1cc(Nc2nccn3c(-c4ccc(Oc5nccc(C)n5)c(F)c4F)cnc23)ccc1C(=O)N[C@@H](C)CNC(=O)[C@@H](N)CCNC(=N)N [Example 455, N-((S)-1-((S)-2-amino-4-guanidinobutanamido)propan-2-yl)-4-((3-(2,3-difluoro-4-((4-methylpyrimidin-2-yl)oxy)phenyl)imidazo[1,2-a]pyrazin-8-yl)amino)-2-ethylbenzamide formiate 1:2] |
| 380 nM | Cc1cc(Nc2nccn3c(-c4ccc(OC(F)F)cc4)cnc23)ccc1C(=O)NCCC1CCNCC1 [Example 196, 4-[[3-[4-(difluoromethoxy)phenyl]im-idazo[1,2-a]pyrazin-8-yl]amino]-2-methyl-N-(2-piperidin-4-ylethyl)benzamide;hydrochlo-ride] |
| 230 nM | CCc1cc(Nc2nccn3c(-c4ccc(OC(F)F)c(F)c4F)cnc23)ccc1C(=O)NCCNC(=O)[C@H](N)CCCNC(=N)N [Example 132, N-[2-[[(2R)-2-amino-5-guanidino-pentanoyl]amino]ethyl]-4-[[3-[4-(difluoromethoxy)-2,3-difluoro-phenyl]imidazo[1,2-a]pyrazin-8-yl]amino]-2-ethyl-benzamide formate] |
| 440 nM | CCc1cc(Nc2nccn3c(-c4ccc(Oc5ccccn5)c(F)c4F)cnc23)ccc1C(=O)NCCNC(=O)CCN [Example 421, N-[2-(3-aminopropanoylamino)ethyl]-4-[[3-[2,3-difluoro-4-(2-pyridyloxy)phenyl]imidazo [1,2-a]pyrazin-8-yl]amino]-2-ethyl-benzamide; formic acid] |
| 240 nM | CCc1cc(Nc2nccn3c(-c4ccc(OC)c(F)c4F)cnc23)ccc1C(=O)NCC(O)CNC(=O)[C@@H](N)CCNC(=N)N (mixture of isomers) [Example 416, rac-N-(3-((R)-2-amino-4-guanidinobutanamido)-2-hydroxypropyl)-4-((3-(2,3-difluoro-4-methoxyphenyl)imidazo[1,2-a]pyrazin-8-yl)amino)-2-ethylbenzamide diformate] |
| 41 nM | COc1ccc(-c2cnc3c(Nc4ccc(C(=O)NCCCCCN)c(C)c4)nccn23)c(F)c1F [Example 491, N-(5-aminopentyl)-4-((3-(2,3-difluoro-4-methoxyphenyl)imidazo[1,2-a]pyrazin-8-yl)amino)-2-methylbenzamide hydrochloride] |
| 120 nM | CCc1cc(Nc2nccn3c(-c4ccc(OC(F)F)c(F)c4F)cnc23)ccc1C(=O)NCCCO [Example 293, 4-[[3-[4-(difluoromethoxy)-2,3-difluorophenyl]imidazo[1,2-a]pyrazin-8-yl]amino]-2-ethyl-N-(3-hydroxypropyl)benzamide] |
